Source: ChEMBL document CHEMBL5096230 (J Med Chem, 2022)

Experiments:
Type in all cases: organism-based
Settings in all cases: in vivo, 120 h, time 5 day
[1] = Toxicity in BALB/c mouse at 50 mg/kg, iv administered daily for 5 days
[2] = Toxicity in BALB/c mouse assessed as animal death at 8 mg/kg, iv administered daily for 5 days and measured after 2 dose
[3] = Toxicity in BALB/c mouse assessed as lethargy at 8 mg/kg, iv administered daily for 5 days

Row | SMILES | Activity [1] | Activity [2] | Activity [3]
1 | CC(C)C[C@H](NC(=O)[C@H](Cc1ccc(N)cc1)NC(=O)CN1CCNCC1)C(=O)N[C@@H](C)C(=O)N[C@@H](Cc1ccc(-c2ccccc2C(F)(F)F)cc1)C(=O)N1CCC[C@H]1C(=O)N[C@@H](CC(=O)O)C(=O)N[C@@H](C)C(=O)N[C@H](C(=O)N1CCC[C@H]1C(=O)N[C@@H](Cc1ccccc1)C(=O)N[C@@H](CCCNC(=N)N)C(=O)N1CCC[C@H]1C(=O)NCC(=O)NCCCC[C@H](NC(=O)CNC(=O)[C@@H]1CCCN1C(=O)[C@H](CCCNC(=N)N)NC(=O)[C@H](Cc1ccccc1)NC(=O)[C@@H]1CCCN1C(=O)[C@@H](NC(=O)[C@H](C)NC(=O)[C@H](CC(=O)O)NC(=O)[C@@H]1CCCN1C(=O)[C@H](Cc1ccc(-c2ccccc2C(F)(F)F)cc1)NC(=O)[C@H](C)NC(=O)[C@H](CC(C)C)NC(=O)[C@H](Cc1ccc(N)cc1)NC(=O)CN1CCNCC1)C1CCCCC1)C(=O)NCC(=O)N[C@@H](CCCCNC(=O)CCCc1cn(CCCCCC(=O)O)nn1)C(N)=O)C1CCCCC1 | Non-Toxic | – | –
2 | CC(=O)O[C@H]1C(=O)[C@@]2(C)[C@H]([C@H](OC(=O)c3ccccc3)[C@]3(O)C[C@H](OC(=O)[C@H](OC(=O)CCCCCn4cc(CCCC(=O)NCCCC[C@H](NC(=O)CNC(=O)[C@H](CCCCNC(=O)CNC(=O)[C@@H]5CCCN5C(=O)[C@H](CCCNC(=N)N)NC(=O)[C@H](Cc5ccccc5)NC(=O)[C@@H]5CCCN5C(=O)[C@@H](NC(=O)[C@H](C)NC(=O)[C@H](CC(=O)O)NC(=O)[C@@H]5CCCN5C(=O)[C@H](Cc5ccc(-c6ccccc6C(F)(F)F)cc5)NC(=O)[C@H](C)NC(=O)[C@H](CC(C)C)NC(=O)[C@H](Cc5ccc(N)cc5)NC(=O)CN5CCNCC5)C5CCCCC5)NC(=O)CNC(=O)[C@@H]5CCCN5C(=O)[C@H](CCCNC(=N)N)NC(=O)[C@H](Cc5ccccc5)NC(=O)[C@@H]5CCCN5C(=O)[C@@H](NC(=O)[C@H](C)NC(=O)[C@H](CC(=O)O)NC(=O)[C@@H]5CCCN5C(=O)[C@H](Cc5ccc(-c6ccccc6C(F)(F)F)cc5)NC(=O)[C@H](C)NC(=O)[C@H](CC(C)C)NC(=O)[C@H](Cc5ccc(N)cc5)NC(=O)CN5CCNCC5)C5CCCCC5)C(N)=O)nn4)[C@@H](NC(=O)c4ccccc4)c4ccccc4)C(C)=C1C3(C)C)[C@]1(OC(C)=O)CO[C@@H]1C[C@@H]2O | Non-Toxic | – | –
3 | CC(=O)O[C@H]1C(=O)[C@@]2(C)[C@H]([C@H](OC(=O)c3ccccc3)[C@]3(O)C[C@H](OC(=O)[C@H](O)[C@@H](NC(=O)c4ccccc4)c4ccccc4)C(C)=C1C3(C)C)[C@]1(OC(C)=O)CO[C@@H]1C[C@@H]2O [PACLITAXEL] | – | Toxic | Toxic
